What was measured:
[1] = biological target: T1, HiBit-BRG1 fusion protein in stable HeLa cell line expressing HiBit-BRG1 and LgBit (Homo sapiens, UniProt P51532); assay: HiBiT-BRG1 cell-based degradation assay (Nano-Glo HiBiT, 24 h); conditions: HeLa HiBit-BRG1/LgBit cells; for DC50: read-out: BRMG1 HiBit Degradation IC50; for Dmax: top dose 30 μM, read-out: BRG1 HiBit Degradation Maximum (%)
T1 construct: expressed in transfected cells
In short: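 Stable HeLa line co-expressing HiBiT-BRG1 and LgBiT, compound-treated 24 h; luminescence read after Nano-Glo HiBiT lytic reagent. % degradation normalised between DMSO (high control) and 2 μM reference BRM/BRG1 degrader (low control).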

[2] = biological target: T2, HiBiT-BRM fusion protein in stable HeLa cell line (Homo sapiens, UniProt P51531); assay: HiBiT-BRM cell-based degradation assay (Nano-Glo HiBiT Lytic Detection, 24 h); set-up: DC50: scale not given here; conditions: HeLa HiBiT-BRM cells; for DC50: read-out: BRM HiBit Degradation IC50; for BRM HiBit Degradation Maximum (%): top dose 30 μM
T2 construct: expressed in transfected cells
In short: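 Stable HiBiT-BRM HeLa cells were treated with 10-point 3-fold serial dilutions (30 μM final top dose, duplicate) for 24 h, then lysed with LgBiT-containing detection reagent and luminescence read. Degradation % was normalised to DMSO (high control) and 2 μM reference BRM/BRG1 degrader (low control).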

T2 sequence (P51531 whole entry, the tested form may be a part): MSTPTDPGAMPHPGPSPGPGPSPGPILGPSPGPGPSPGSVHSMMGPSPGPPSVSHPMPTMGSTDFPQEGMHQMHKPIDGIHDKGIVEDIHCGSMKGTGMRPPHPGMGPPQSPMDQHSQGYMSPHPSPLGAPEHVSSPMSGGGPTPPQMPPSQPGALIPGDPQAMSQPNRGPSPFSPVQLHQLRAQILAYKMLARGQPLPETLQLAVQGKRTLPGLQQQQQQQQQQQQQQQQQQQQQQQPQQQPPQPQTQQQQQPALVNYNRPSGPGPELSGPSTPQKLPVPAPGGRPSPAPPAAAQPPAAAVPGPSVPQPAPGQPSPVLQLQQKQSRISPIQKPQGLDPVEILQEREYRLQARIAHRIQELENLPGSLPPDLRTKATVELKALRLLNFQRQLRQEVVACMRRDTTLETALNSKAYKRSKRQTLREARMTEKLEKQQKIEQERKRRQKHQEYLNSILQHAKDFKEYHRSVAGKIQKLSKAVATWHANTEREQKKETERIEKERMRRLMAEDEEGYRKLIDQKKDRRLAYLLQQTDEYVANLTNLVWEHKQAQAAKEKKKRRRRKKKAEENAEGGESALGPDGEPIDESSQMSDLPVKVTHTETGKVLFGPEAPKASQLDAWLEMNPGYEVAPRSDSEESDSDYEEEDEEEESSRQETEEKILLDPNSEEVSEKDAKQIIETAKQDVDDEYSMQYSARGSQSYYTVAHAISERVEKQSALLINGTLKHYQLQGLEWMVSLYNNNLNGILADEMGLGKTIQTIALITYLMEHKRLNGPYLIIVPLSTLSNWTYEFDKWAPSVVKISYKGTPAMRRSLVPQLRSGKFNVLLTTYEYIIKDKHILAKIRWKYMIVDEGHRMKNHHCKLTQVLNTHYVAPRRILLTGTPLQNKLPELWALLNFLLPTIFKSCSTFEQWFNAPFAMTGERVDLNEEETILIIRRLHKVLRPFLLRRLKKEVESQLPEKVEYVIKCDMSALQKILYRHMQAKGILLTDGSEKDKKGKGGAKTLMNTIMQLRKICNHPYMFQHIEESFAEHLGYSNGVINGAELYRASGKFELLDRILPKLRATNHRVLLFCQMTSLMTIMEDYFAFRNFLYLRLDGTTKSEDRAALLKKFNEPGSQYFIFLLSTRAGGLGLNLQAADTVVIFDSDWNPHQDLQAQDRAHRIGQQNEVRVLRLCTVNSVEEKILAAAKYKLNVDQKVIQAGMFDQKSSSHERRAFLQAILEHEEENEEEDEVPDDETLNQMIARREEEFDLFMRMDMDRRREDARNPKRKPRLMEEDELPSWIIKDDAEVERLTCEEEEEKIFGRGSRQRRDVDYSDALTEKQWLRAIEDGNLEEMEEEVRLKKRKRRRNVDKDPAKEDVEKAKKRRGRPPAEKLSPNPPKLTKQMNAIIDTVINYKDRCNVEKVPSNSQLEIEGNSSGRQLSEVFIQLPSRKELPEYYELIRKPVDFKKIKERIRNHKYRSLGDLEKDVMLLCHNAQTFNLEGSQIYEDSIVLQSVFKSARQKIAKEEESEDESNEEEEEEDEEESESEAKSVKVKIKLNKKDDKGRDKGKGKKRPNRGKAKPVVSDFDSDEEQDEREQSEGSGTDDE
T1 sequence (P51532 whole entry, the tested form may be a part): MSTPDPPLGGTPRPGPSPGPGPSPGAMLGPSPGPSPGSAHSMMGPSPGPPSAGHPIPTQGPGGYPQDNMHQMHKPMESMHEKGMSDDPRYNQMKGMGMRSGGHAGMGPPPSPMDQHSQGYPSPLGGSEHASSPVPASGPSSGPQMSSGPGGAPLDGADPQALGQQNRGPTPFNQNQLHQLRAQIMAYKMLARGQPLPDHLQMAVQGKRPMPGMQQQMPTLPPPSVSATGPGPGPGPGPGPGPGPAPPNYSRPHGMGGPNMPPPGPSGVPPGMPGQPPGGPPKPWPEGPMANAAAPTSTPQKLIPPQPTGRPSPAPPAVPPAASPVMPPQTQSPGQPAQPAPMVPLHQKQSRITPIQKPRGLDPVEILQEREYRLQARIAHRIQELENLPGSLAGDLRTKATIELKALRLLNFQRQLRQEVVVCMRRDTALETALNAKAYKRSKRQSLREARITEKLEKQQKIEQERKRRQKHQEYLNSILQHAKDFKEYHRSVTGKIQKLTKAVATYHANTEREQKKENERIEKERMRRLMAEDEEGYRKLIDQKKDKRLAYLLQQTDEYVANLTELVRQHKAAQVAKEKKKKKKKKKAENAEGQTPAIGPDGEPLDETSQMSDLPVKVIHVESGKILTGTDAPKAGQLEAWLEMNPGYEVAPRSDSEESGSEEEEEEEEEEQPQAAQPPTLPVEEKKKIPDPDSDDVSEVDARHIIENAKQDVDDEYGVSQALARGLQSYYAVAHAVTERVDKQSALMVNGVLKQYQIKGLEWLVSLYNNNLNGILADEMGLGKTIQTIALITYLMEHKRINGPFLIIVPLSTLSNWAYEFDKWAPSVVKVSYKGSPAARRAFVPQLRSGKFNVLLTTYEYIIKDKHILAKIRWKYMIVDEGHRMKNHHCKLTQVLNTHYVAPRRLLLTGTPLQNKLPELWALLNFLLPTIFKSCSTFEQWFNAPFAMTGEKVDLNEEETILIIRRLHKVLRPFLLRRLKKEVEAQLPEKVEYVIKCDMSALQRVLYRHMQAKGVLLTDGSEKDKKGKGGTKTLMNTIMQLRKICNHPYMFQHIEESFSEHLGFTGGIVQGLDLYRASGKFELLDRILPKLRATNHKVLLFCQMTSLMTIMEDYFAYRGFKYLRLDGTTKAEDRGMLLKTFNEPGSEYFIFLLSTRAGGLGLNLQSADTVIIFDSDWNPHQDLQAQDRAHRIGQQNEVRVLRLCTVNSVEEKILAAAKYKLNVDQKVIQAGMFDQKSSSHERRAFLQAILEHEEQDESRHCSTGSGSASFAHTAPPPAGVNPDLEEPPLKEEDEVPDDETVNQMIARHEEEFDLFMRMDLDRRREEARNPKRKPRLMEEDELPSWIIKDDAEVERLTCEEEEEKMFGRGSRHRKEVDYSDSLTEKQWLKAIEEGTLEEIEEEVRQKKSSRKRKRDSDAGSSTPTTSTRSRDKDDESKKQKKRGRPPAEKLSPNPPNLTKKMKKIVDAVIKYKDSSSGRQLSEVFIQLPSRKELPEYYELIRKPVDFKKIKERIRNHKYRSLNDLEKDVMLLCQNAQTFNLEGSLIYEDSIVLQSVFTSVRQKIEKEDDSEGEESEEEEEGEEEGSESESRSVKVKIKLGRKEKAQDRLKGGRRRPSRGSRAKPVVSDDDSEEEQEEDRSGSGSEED

With `Cc1ncsc1-c1ccc([C@H](C)NC(=O)[C@@H]2C[C@@H](O)CN2C(=O)[C@@H](c2cc(N3CCC(Oc4ccc5cc(-c6ccccc6O)nnc5c4)CC3)no2)C(C)C)cc1` [Compound 183, (2S,4R)-4-hydroxy-1-((R)-2-(3-(4-((3-(2-hydroxyphenyl)cinnolin-7-yl)oxy)piperidin-1-yl)isoxazol-5-yl)-3-methylbutanoyl)-N-((S)-1-(4-(4-methylthiazol-5-yl)phenyl)ethyl)pyrrolidine-2-carboxamide] the DC50 [1] was > 10 nM, the Dmax [1] was > 50% and the DC50 [2] was < 10 nM. For the same molecule, the “BRM HiBit Degradation Maximum (%)” value [2] was “A (“A” indicates maximum degradation ≥75%)”.
In the case of `Cc1ncsc1-c1ccc([C@H](C)NC(=O)[C@@H]2C[C@@H](O)CN2C(=O)[C@@H](c2cc(N3CC4(CC(Oc5ccc6nnc(-c7ccccc7O)cc6c5)C4)C3)no2)C(C)C)cc1` [Compound 184, (2S,4R)-4-hydroxy-1-((R)-2-(3-(6-((3-(2-hydroxyphenyl)cinnolin-6-yl)oxy)-2-azaspiro[3.3]heptan-2-yl)isoxazol-5-yl)-3-methylbutanoyl)-N-((S)-1-(4-(4-methylthiazol-5-yl)phenyl)ethyl)pyrrolidine-2-carboxamide], the DC50 [1] is reported as > 10 nM, the Dmax [1] is reported as > 50% and the DC50 [2] is reported as < 10 nM. The “BRM HiBit Degradation Maximum (%)” value [2] was “A (“A” indicates maximum degradation ≥75%)”.
With `Cc1ncsc1-c1ccc([C@H](C)NC(=O)[C@@H]2C[C@@H](O)CN2C(=O)[C@H](C(C)C)n2cc(C3CC4(C3)CN(c3ccc5cc(-c6ccccc6O)nnc5c3)C4)nn2)cc1` [Compound 186, (2S,4R)-4-hydroxy-1-[(2S)-2-(4-{2-[3-(2-hydroxyphenyl)cinnolin-7-yl]-2-azaspiro[3.3]heptan-6-yl}-1,2,3-triazol-1-yl)-3-methylbutanoyl]-N-[(1S)-1-[4-(4-methyl-1,3-thiazol-5-yl)phenyl]ethyl]pyrrolidine-2-carboxamide] the DC50 [1] was < 10 nM, the Dmax [1] was > 75% and the DC50 [2] was < 10 nM. For the same molecule, the “BRM HiBit Degradation Maximum (%)” value [2] was “A (“A” indicates maximum degradation ≥75%)”.
In the case of `Cc1ncsc1-c1ccc([C@H](C)NC(=O)[C@@H]2C[C@@H](O)CN2C(=O)[C@@H](c2cc(N3C[C@]4(C)CN(c5ccc6cc(-c7ccccc7O)nnc6c5)C[C@]4(C)C3)no2)C(C)C)cc1` [Compound 187, (2S,4R)-4-hydroxy-1-((R)-2-(3-((3aR,6aS)-5-(3-(2-hydroxyphenyl)cinnolin-7-yl)-3a,6a-dimethylhexahydropyrrolo[3,4-c]pyrrol-2(1H)-yl)isoxazol-5-yl)-3-methylbutanoyl)-N-((S)-1-(4-(4-methylthiazol-5-yl)phenyl)ethyl)pyrrolidine-2-carboxamide], the DC50 [1] is reported as > 10 nM, the Dmax [1] is reported as > 75% and the DC50 [2] is reported as < 10 nM. The “BRM HiBit Degradation Maximum (%)” value [2] was “A (“A” indicates maximum degradation ≥75%)”.
`Cc1ncsc1-c1ccc([C@H](C)NC(=O)[C@@H]2C[C@@H](O)CN2C(=O)[C@@H](c2cc(N3C[C@]4(C)CN(c5ccc6nnc(-c7ccccc7O)cc6c5)C[C@]4(C)C3)no2)C(C)C)cc1` [Compound 188, (2S,4R)-4-hydroxy-1-((R)-2-(3-((3aR,6aS)-5-(3-(2-hydroxyphenyl)cinnolin-6-yl)-3a,6a-dimethylhexahydropyrrolo[3,4-c]pyrrol-2(1H)-yl)isoxazol-5-yl)-3-methylbutanoyl)-N-((S)-1-(4-(4-methylthiazol-5-yl)phenyl)ethyl)pyrrolidine-2-carboxamide] was tested, and the DC50 [1] was > 10 nM, the Dmax [1] was > 75% and the DC50 [2] was > 10 nM. The “BRM HiBit Degradation Maximum (%)” value [2] was “A (“A” indicates maximum degradation ≥75%)”.
With `Cc1ncsc1-c1ccc([C@H](C)NC(=O)[C@@H]2C[C@@H](O)CN2C(=O)[C@H](C(C)C)n2cc(N3CC4(CN(c5ccc6nnc(-c7ccccc7O)cc6c5)CCO4)C3)nn2)cc1` [Compound 189, (2S,4R)-4-hydroxy-1-((S)-2-(4-(8-(3-(2-hydroxyphenyl)cinnolin-6-yl)-5-oxa-2,8-diazaspiro[3.5]nonan-2-yl)-1H-1,2,3-triazol-1-yl)-3-methylbutanoyl)-N-((S)-1-(4-(4-methylthiazol-5-yl)phenyl)ethyl)pyrrolidine-2-carboxamide] the Dmax [1] was < 50%, the DC50 [2] was < 10 nM and the “BRM HiBit Degradation Maximum (%)” value [2] was “A (“A” indicates maximum degradation ≥75%)”.
For `Cc1ncsc1-c1ccc([C@H](C)NC(=O)[C@@H]2C[C@@H](O)CN2C(=O)[C@H](C(C)C)n2cc(-c3ccc4nnc(-c5ccccc5O)cc4c3Cl)nn2)cc1` [Compound 190, (2S,4R)-1-((S)-2-(4-(5-chloro-3-(2-hydroxyphenyl)cinnolin-6-yl)-1H-1,2,3-triazol-1-yl)-3-methylbutanoyl)-4-hydroxy-N-((S)-1-(4-(4-methylthiazol-5-yl)phenyl)ethyl)pyrrolidine-2-carboxamide], the Dmax [1] was < 50%, the DC50 [2] was < 10 nM and the “BRM HiBit Degradation Maximum (%)” value [2] was “A (“A” indicates maximum degradation ≥75%)”.
In the case of `Cc1ncsc1-c1ccc([C@H](C)NC(=O)[C@@H]2C[C@@H](O)CN2C(=O)C(c2cc(N3CC4(CN(c5cc(C(F)F)c6cc(-c7ccccc7O)nnc6c5)C4)C3)no2)C(C)C)cc1` (stereo partly drawn) [Compound 191, (2S,4R)-1-(2-(3-(6-(5-(difluoromethyl)-3-(2-hydroxyphenyl)cinnolin-7-yl)-2,6-diazaspiro[3.3]heptan-2-yl)isoxazol-5-yl)-3-methylbutanoyl)-4-hydroxy-N-((S)-1-(4-(4-methylthiazol-5-yl)phenyl)ethyl)pyrrolidine-2-carboxamide], the Dmax [1] is reported as < 50%, the DC50 [2] is reported as > 10 nM and the “BRM HiBit Degradation Maximum (%)” value [2] is reported as “A (“A” indicates maximum degradation ≥75%)”.
With `Cc1ncsc1-c1ccc([C@H](C)NC(=O)[C@@H]2C[C@@H](O)CN2C(=O)[C@H](C(C)C)n2cc(N3CCC4(CCN(c5ccc6cc(-c7ccccc7O)nnc6c5)CC4)CC3)nn2)cc1` [Compound 192, (2S,4R)-4-hydroxy-1-((S)-2-(4-(9-(3-(2-hydroxyphenyl)cinnolin-7-yl)-3,9-diazaspiro [5.5]undecan-3-yl)-1H-1,2,3-triazol-1-yl)-3-methylbutanoyl)-N-((S)-1-(4-(4-methylthiazol-5-yl)phenyl)ethyl)pyrrolidine-2-carboxamide] the DC50 [1] was < 10 nM, the Dmax [1] was > 75% and the DC50 [2] was < 10 nM. The “BRM HiBit Degradation Maximum (%)” value [2] was “A (“A” indicates maximum degradation ≥75%)”.
For `Cc1ncsc1-c1ccc([C@H](C)NC(=O)[C@@H]2C[C@@H](O)CN2C(=O)[C@H](C2CCC2)n2cc(N3CC4(CC(c5ccc6cc(-c7ccccc7O)nnc6c5)C4)C3)nn2)cc1` [Compound 193, (2S,4R)-1-((S)-2-cyclobutyl-2-(4-(6-(3-(2-hydroxyphenyl)cinnolin-7-yl)-2-azaspiro[3.3]heptan-2-yl)-1H-1,2,3-triazol-1-yl)acetyl)-4-hydroxy-N-((S)-1-(4-(4-methylthiazol-5-yl)phenyl)ethyl)pyrrolidine-2-carboxamide], the DC50 [1] was > 10 nM, the Dmax [1] was > 75% and the DC50 [2] was < 10 nM. The “BRM HiBit Degradation Maximum (%)” value [2] was “A (“A” indicates maximum degradation ≥75%)”.
In the case of `Cc1ncsc1-c1ccc([C@H](C)NC(=O)[C@@H]2C[C@@H](O)CN2C(=O)[C@@H](c2cc(N3CC4(CN(c5ccc6cc(-c7ccccc7O)nnc6c5)C4)C3)sn2)C(C)C)cc1` [Compound 195, (2S,4R)-4-hydroxy-1-[(2R)-2-(5-{6-[3-(2-hydroxyphenyl)cinnolin-7-yl]-2,6-diazaspiro[3.3]heptan-2-yl}-1,2-thiazol-3-yl)-3-methylbutanoyl]-N-[(1S)-1-[4-(4-methyl-1,3-thiazol-5-yl)phenyl]ethyl]pyrrolidine-2-carboxamide], the Dmax [1] is reported as > 50%, the DC50 [2] is reported as < 10 nM and the “BRM HiBit Degradation Maximum (%)” value [2] is reported as “A (“A” indicates maximum degradation ≥75%)”.
